Among the data in PubChem BioAssay (NCI) are GI50 and TGI values, retold here.

The structures appear in SMILES notation.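 Dose response: 5 concentrations. Exposure: 48 h. Format: 96-well plates. Endpoint: linear interpolation; highest concentration if not reached. At the GI50, growth is halved. The concentration for full growth arrest is given as TGI.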

Among the test systems are CAKI-1 renal; RXF 393 renal; SF-539 CNS; OVCAR-3 ovarian; CCRF-CEM leukemia; MALME-3M melanoma; SR leukemia; HL-60(TB) leukemia; NCI/ADR-RES ovarian; MOLT-4 leukemia.
Common to all, as to test: NCI anticancer screen, dose series, 48 h

As for `Cc1c(C2Nc3ccccc3C2C)[nH]c2ccccc12` (configuration not stated), the GI50 in the experiment on CAKI-1 renal is 2.45 µM; in the experiment with RXF 393 renal, 12.4 µM; with SF-539 CNS, 8.72 µM; in the experiment on OVCAR-3 ovarian it was 11.6 µM; in the experiment on CCRF-CEM leukemia, 0.801 µM; in the experiment on MALME-3M melanoma, 10.6 µM. In addition, the GI50 with SR leukemia is 0.738 µM; in the experiment with HL-60(TB) leukemia, 13.1 µM; with NCI/ADR-RES ovarian, 10.4 µM; in the experiment on MOLT-4 leukemia, 11.2 µM. Moreover, the TGI is 22.8 µM in the experiment with CAKI-1 renal; 28.8 µM in the experiment with RXF 393 renal; 25.1 µM with SF-539 CNS; 27.2 µM in the experiment on OVCAR-3 ovarian; 46.6 µM in the experiment with CCRF-CEM leukemia; 24.8 µM in the experiment with MALME-3M melanoma. Further, the TGI in the experiment on SR leukemia was determined as 26.3 µM; in the experiment with HL-60(TB) leukemia it was 38.3 µM; with NCI/ADR-RES ovarian, 30.7 µM; in the experiment with MOLT-4 leukemia, 49.5 µM.

As to `CCN(CC)CCOc1ccc(/C(=C(\C)c2ccc(F)c(OC)c2)c2ccc(Cl)cc2)cc1`, the GI50 is 2.42 µM in the experiment with CAKI-1 renal; 2.18 µM in the experiment with RXF 393 renal; 2.45 µM with SF-539 CNS; 2.26 µM in the experiment on OVCAR-3 ovarian; 2.96 µM in the experiment with CCRF-CEM leukemia; 2.09 µM in the experiment with MALME-3M melanoma. Further, the GI50 was 2.01 µM in the experiment on SR leukemia, 2.69 µM with HL-60(TB) leukemia, 2.36 µM in the experiment with NCI/ADR-RES ovarian and 2.49 µM with MOLT-4 leukemia. In addition, the TGI turned out to be 4.61 µM in the experiment with CAKI-1 renal; 4.36 µM with RXF 393 renal; 4.74 µM in the experiment on SF-539 CNS; 4.6 µM in the experiment with OVCAR-3 ovarian; 8.55 µM in the experiment with CCRF-CEM leukemia; 4.7 µM in the experiment with MALME-3M melanoma. In addition, the TGI with SR leukemia was 6.91 µM; with HL-60(TB) leukemia, 6.43 µM; with NCI/ADR-RES ovarian, 4.69 µM; in the experiment on MOLT-4 leukemia, 6.86 µM.

`COc1ccc(-n2cc(-c3ccc(Cl)c(Cl)c3)nc2SCc2cccc(C#N)c2)cc1`: the GI50 with CAKI-1 renal is 18 µM; with RXF 393 renal, 13.6 µM; in the experiment with SF-539 CNS, 16.1 µM; with OVCAR-3 ovarian it was 17 µM; with CCRF-CEM leukemia it was more than 100 µM; in the experiment with MALME-3M melanoma, 16.4 µM. Besides, the GI50 in the experiment with SR leukemia was more than 100 µM; in the experiment on HL-60(TB) leukemia, more than 100 µM; with NCI/ADR-RES ovarian, 23 µM; in the experiment on MOLT-4 leukemia, 19.4 µM. For the same compound, the TGI is 48.8 µM with CAKI-1 renal; 41 µM in the experiment on RXF 393 renal; 41.9 µM with SF-539 CNS; more than 100 µM in the experiment on OVCAR-3 ovarian; more than 100 µM with CCRF-CEM leukemia; more than 100 µM with MALME-3M melanoma. The TGI in the experiment with SR leukemia, in the experiment on HL-60(TB) leukemia, with NCI/ADR-RES ovarian and in the experiment with MOLT-4 leukemia was more than 100 µM each time.

As for `O/N=C\c1c(O)ccc2ccccc12`, the TGI in the experiment on CAKI-1 renal is more than 100 µM; in the experiment with RXF 393 renal, more than 100 µM; with SF-539 CNS it was more than 100 µM; in the experiment on OVCAR-3 ovarian, 66.7 µM; in the experiment on CCRF-CEM leukemia, more than 100 µM; in the experiment with MALME-3M melanoma, 75.5 µM. Also, the figures for the TGI in the experiment with SR leukemia, in the experiment with HL-60(TB) leukemia and in the experiment with NCI/ADR-RES ovarian were 82.1 µM, 54.9 µM and more than 100 µM, respectively.

Regarding `O=C(CCCN1CC=C(n2c(=O)[nH]c3ccccc32)CC1)c1ccc(F)cc1`, the GI50 in the experiment on CAKI-1 renal was 21.7 µM; in the experiment on RXF 393 renal, 19 µM; in the experiment with OVCAR-3 ovarian it was 31.4 µM; in the experiment on CCRF-CEM leukemia, 35.5 µM; with MALME-3M melanoma it was 38.9 µM; in the experiment with SR leukemia, 29.6 µM. Further, the GI50 is 24.3 µM in the experiment with HL-60(TB) leukemia, 22.9 µM in the experiment on NCI/ADR-RES ovarian and 30.5 µM with MOLT-4 leukemia. Besides, the TGI in the experiment on CAKI-1 renal was 72.5 µM; in the experiment on RXF 393 renal it was more than 100 µM; in the experiment on OVCAR-3 ovarian, more than 100 µM; with CCRF-CEM leukemia it was more than 100 µM; in the experiment with MALME-3M melanoma it was more than 100 µM; in the experiment on SR leukemia it was 89.1 µM. Further, the TGI in the experiment on HL-60(TB) leukemia was 67.4 µM; with NCI/ADR-RES ovarian, more than 100 µM; in the experiment on MOLT-4 leukemia it was 91.8 µM.

For the compound `Fc1ccc(Nc2cc(-n3nnc4ccccc43)nc3ccccc23)cc1`, the GI50 in the experiment on CAKI-1 renal is 41.5 µM; with RXF 393 renal, 0.781 µM; in the experiment on SF-539 CNS it was 24.6 µM; with OVCAR-3 ovarian it was 28.4 µM; with CCRF-CEM leukemia, more than 100 µM; in the experiment on MALME-3M melanoma it was 23.1 µM. The GI50 in the experiment with SR leukemia is more than 100 µM; in the experiment with HL-60(TB) leukemia it was more than 100 µM; with NCI/ADR-RES ovarian it was 56.3 µM; in the experiment on MOLT-4 leukemia, more than 100 µM. Besides, the TGI in the experiment on CAKI-1 renal was more than 68.9 µM; in the experiment on RXF 393 renal, 27.6 µM; in the experiment on SF-539 CNS, more than 55.6 µM; in the experiment on OVCAR-3 ovarian it was more than 100 µM; with CCRF-CEM leukemia it was more than 100 µM; in the experiment with MALME-3M melanoma, more than 70.6 µM. Moreover, the TGI in the experiment on SR leukemia, in the experiment with HL-60(TB) leukemia, with NCI/ADR-RES ovarian and in the experiment on MOLT-4 leukemia was more than 100 µM each time.

`O=C1/C(=C\c2cccn2Cc2ccccc2)c2ccccc2N1c1c(Cl)cccc1Cl`: the GI50 with CAKI-1 renal is more than 28.9 µM; in the experiment on RXF 393 renal it was more than 100 µM; in the experiment on SF-539 CNS, more than 100 µM; with OVCAR-3 ovarian, 1.32 µM; with CCRF-CEM leukemia, more than 100 µM; with MALME-3M melanoma, 3.22 µM. Moreover, the GI50 in the experiment with SR leukemia was more than 73.4 µM; in the experiment on HL-60(TB) leukemia, more than 100 µM; in the experiment on NCI/ADR-RES ovarian it was more than 100 µM; in the experiment with MOLT-4 leukemia, more than 100 µM. For the same compound, the TGI was more than 100 µM in the experiment on CAKI-1 renal; more than 100 µM with RXF 393 renal; more than 100 µM with SF-539 CNS; more than 48.7 µM with OVCAR-3 ovarian; more than 100 µM with CCRF-CEM leukemia; more than 100 µM with MALME-3M melanoma. For the same compound, the TGI in the experiment with SR leukemia, in the experiment on HL-60(TB) leukemia, in the experiment with NCI/ADR-RES ovarian and in the experiment with MOLT-4 leukemia was more than 100 µM each time.

As to `Cc1[nH]n(-c2cccc(Cl)c2)c(=O)c1/C=C1\C=Nc2ccc(Br)cc21`, the GI50 with CAKI-1 renal is 2.43 µM; with RXF 393 renal, 1.86 µM; in the experiment on SF-539 CNS it was 4.32 µM; in the experiment with OVCAR-3 ovarian, 1.82 µM; in the experiment with CCRF-CEM leukemia it was 2.95 µM; with MALME-3M melanoma, 3.15 µM. The GI50 in the experiment on SR leukemia is 1.88 µM; in the experiment on HL-60(TB) leukemia it was 4.02 µM; in the experiment with NCI/ADR-RES ovarian, 3.4 µM; in the experiment on MOLT-4 leukemia, 3.12 µM. In addition, the TGI with CAKI-1 renal was found to be 13.5 µM; in the experiment with RXF 393 renal, 4.01 µM; in the experiment with SF-539 CNS, 16.7 µM; in the experiment with OVCAR-3 ovarian it was 3.54 µM; in the experiment on CCRF-CEM leukemia it was 9.84 µM; in the experiment with MALME-3M melanoma, 13.1 µM. Moreover, the TGI with SR leukemia was determined as 3.99 µM; with HL-60(TB) leukemia, 33.6 µM; in the experiment with NCI/ADR-RES ovarian, 16 µM; in the experiment with MOLT-4 leukemia, 10.9 µM.
